As usually defined, the pIC50 is the IC50 on a negative log10 scale, so that one unit is a factor of ten.

This note sets out measurements from patent US4939137A, “Ring-fused thienopyrimidinedione derivatives” (Ortho Pharmaceutical Corporation, priority 1989, dated 1990).

One assay concerns the target T1, 5HT2 receptor (Rattus norvegicus, UniProt P14842).
T1 construct: Membrane fragments were prepared from the frontal cortex dissected from brains obtained from female rats; from tissue; host or cells: frontal cortex, female rats
Kind of assay: Brain Serotonin 5HT2 Radioreceptor Assay (3H-ketanserin). Format: binding. To be noted: for pIC50: rat frontal cortex membranes, 15 minutes, 37° C., read-out: RECEPTOR BINDING 5HT-2 (IC50); for inhibition at 1 µM: 0.25 h, @ 10^-6, rat frontal cortex membranes, read-out: RECEPTOR BINDING 5HT-2, % @ 10^-6. Here is the method:
Membrane fragments were prepared from the frontal cortex dissected from brains obtained from female rats (~150 g). The 5HT2 sites were labeled with ^3 H-ketanserin. Membrane fragments, ^3 H-ketanserin and an unlabeled test compound were incubated for 15 minutes at 37° C. Compound bound to the receptor site was separated from the remaining unbound compound by vacuum filtration.
The ability of a nonlabeled compound to compete with ^3 H-ketanserin for binding sites was a measure of the compound's affinity for the 5HT2 receptor. Specific binding was determined by the difference between total counts bound and counts bound in the presence of 10^-6 M methysergide.
Data are presented as the IC50, the concentration of nonlabeled compound required to displace 50% of the ^3 H-ketanserin specifically bound to 5HT2 binding sites.

For a further assay, the target named is T2, 5HT1A receptor (Rattus norvegicus, UniProt P19327).
T2 construct: Membrane fragments were prepared from the frontal cortex dissected from brains obtained from female rats; from tissue; host or cells: frontal cortex, female rats
T2 sequence (P19327 1-422): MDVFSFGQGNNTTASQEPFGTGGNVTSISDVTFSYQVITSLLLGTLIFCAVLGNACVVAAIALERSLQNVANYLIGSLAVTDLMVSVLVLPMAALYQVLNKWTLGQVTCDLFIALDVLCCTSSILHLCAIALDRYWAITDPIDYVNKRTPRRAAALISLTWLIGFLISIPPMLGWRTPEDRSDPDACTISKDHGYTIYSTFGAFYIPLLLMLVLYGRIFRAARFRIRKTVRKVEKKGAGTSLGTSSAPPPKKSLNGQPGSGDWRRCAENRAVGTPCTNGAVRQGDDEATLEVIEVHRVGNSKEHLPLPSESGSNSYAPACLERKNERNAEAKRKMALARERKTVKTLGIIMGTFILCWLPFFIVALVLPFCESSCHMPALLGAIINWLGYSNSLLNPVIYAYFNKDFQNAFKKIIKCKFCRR
Kind of assay: Brain Serotonin 5HT1A Radioreceptor Assay (3H-80H-DPAT). To be noted: rat frontal cortex membranes, 10 minutes, 37° C., read-out: RECEPTOR BINDING 5HT-1A (IC50). Format: binding. Here is the method: Membrane fragments were prepared from the frontal cortex dissected from brains obtained from female rats (~150 g). The 5HT1A sites were labeled with ^3 H-80H-dipropylaminotetralin (^3 H-80H-DPAT). Membrane fragments, ^3 H-80H-DPAT and an unlabeled test compound were incubated for 10 minutes at 37° C. The tubes were then placed in an ice bath for an additional 10 minutes. Compound bound to the receptor site was separated from the remaining unbound compound by vacuum filtration.
The ability of a nonlabeled compound to compete with ^3 H-80H-DPAT for binding sites was a measure of the compound's affinity for the 5HT1A receptor. Specific binding was determined by the difference between total counts bound and counts bound in the presence of 10^-5 M serotonin.
Data are presented at the IC50, the concentration of nonlabeled compound required to displace 50% of the ^3 H-80H-DPAT specifically bound to 5HT1A binding sites.

Assay [1] has as its target alpha-1 adrenergic receptor. Kind of assay: Brain Alpha-1 Radioreceptor Assay (3H-prazosin). As to conditions: guinea pig brain membranes, 30 minutes, 30° C., read-out: RECEPTOR BINDING ALPHA-1 (IC50). Here is the method: Membrane fragments were prepared from the brains of mature female guinea pigs after removal of the corpus striata. The alpha-1 adrenergic receptor sites were labeled with ^3 H-prazosin. Membrane fragments, ^3 H-prazosin and an unlabeled test compound were incubated for 30 minutes at 30° C. Compound bound to the receptor site was separated from the remaining unbound radioligand by vacuum filtration. Specific binding was determined by the difference between total counts bound and counts bound in the presence of 10-^5 M phentolamine.

pIC50: −log10 of the molar value.

T1 sequence (P14842 whole entry, the tested form may be a part): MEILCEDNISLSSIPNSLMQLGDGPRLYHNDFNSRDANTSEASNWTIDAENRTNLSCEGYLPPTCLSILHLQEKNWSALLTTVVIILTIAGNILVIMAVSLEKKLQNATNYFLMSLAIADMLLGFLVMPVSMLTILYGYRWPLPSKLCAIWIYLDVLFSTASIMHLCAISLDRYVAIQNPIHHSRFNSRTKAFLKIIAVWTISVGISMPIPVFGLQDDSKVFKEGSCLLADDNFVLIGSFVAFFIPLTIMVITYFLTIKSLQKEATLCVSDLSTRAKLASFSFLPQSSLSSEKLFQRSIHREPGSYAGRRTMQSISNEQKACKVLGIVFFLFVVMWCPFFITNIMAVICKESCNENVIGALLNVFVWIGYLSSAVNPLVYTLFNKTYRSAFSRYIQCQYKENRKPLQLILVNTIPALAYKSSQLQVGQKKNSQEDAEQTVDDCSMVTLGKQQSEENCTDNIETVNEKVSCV

Turning to `O=C1CCn2c(=O)n(CCN3CCN(c4cccc(C(F)(F)F)c4)CC3)c(=O)c3csc1c32` [Example 6, 4-[2-[4-(3-Trifluoromethylphenyl)piperazin-1-yl]ethyl]-3,4,5,7,8,9-hexahydrothieno[4,3,2-de]-pyrido[1,2-c]pyrimidine-3,5,9-trione], the pIC50 on 5HT2 receptor was 6.15; at 5HT1A receptor it was 7.55; in assay [1], 6.00.

With `O=C1CCn2c(=O)n(CCN3CCN(c4cccc(Cl)c4)CC3)c(=O)c3csc1c32` [Example 7, 4-[2-[4-(3-Chlorophenyl)piperazin-1-yl]ethyl]-3,4,5,7,8,9-hexahydrothieno[4,3,2-de]pyrido[1,2-c]pyrimidine-3,5,9-trione], the pIC50 is 6.46 at 5HT2 receptor, 8.30 on 5HT1A receptor and 6.74 in assay [1].

On to `COc1ccccc1N1CCN(CCCn2c(=O)c3csc4c3n(c2=O)CCC4=O)CC1` [Example 10, 3,4,5,7,8,9-Hexahydro-4-[3-[4-(2-methoxyphenyl)piperazin-1-yl]propyl]thieno[4,3,2-de]pyrido[1,2-c]pyrimidine-3,5,9-trione], for which the pIC50 was 6.52 at 5HT2 receptor, 8.30 at 5HT1A receptor and 7.68 in assay [1].

As for `COc1ccccc1N1CCN(CCCCn2c(=O)c3csc4c3n(c2=O)CCC4=O)CC1` [Example 11, 3,4,5,7,8,9-Hexahydro-4-[4-[4-(2-methoxyphenyl)-piperazin-1-yl]butyl]thieno[4,3,2-de]pyrido[1,2-c]pyrimidine-3,5,9-trione], the inhibition at 1 µM on 5HT2 receptor was 33%. The pIC50 on 5HT1A receptor was 9.05; in assay [1] it was 9.30.

Consider `COc1ccccc1N1CCN(CCCCCn2c(=O)c3csc4c3n(c2=O)CCC4=O)CC1` [Example 12, 3,4,5,7,8,9-Hexahydro-4-[5-[4-(2-methoxyphenyl)piperazin-1-yl]pentyl]thieno[4,3,2-de]pyrido[1,2-c]pyrimidine-3,5,9-trione], for which the pIC50 was 5.82 at 5HT2 receptor and 7.35 on 5HT1A receptor.

For the molecule `COc1ccccc1N1CCN(CCn2c(=O)c3csc4c3n(c2=O)CCCCC4=O)CC1` [Example 16, 4,7,8,9,10,11-Hexahydro-4-[2-[4-(2-methoxyphenyl)piperazin-1-yl]ethyl]thieno[4,3,2-de]pyrimido[3,4-a]azocine-3,5,11-trione], the results for the pIC50 (at 5HT2 receptor; on 5HT1A receptor; in assay [1]) were 5.70, 6.80 and 7.46, respectively.

Consider `O=C1CCn2c(=O)n(CCCCN3CCN(c4cccc(C(F)(F)F)c4)CC3)c(=O)c3csc1c32` [Example 18, 4-[4-[4-(3-Trifluoromethylphenyl)piperazin-1-yl]butyl]-3,4,5,7,8,9-hexahydrothieno[4,3,2-de]-pyrido[1,2-c]pyrimidine-3,5,9-trione], for which the inhibition at 1 µM at 5HT2 receptor was found to be 47%. Moreover, the pIC50 in assay [1] is 5.35.

As to `O=C1CCn2c(=O)n(CCCCCN3CCN(c4cccc(C(F)(F)F)c4)CC3)c(=O)c3csc1c32` [Example 43], the pIC50 is 6.37 at 5HT2 receptor and 7.28 at 5HT1A receptor.

Consider `CON=C1CCn2c(=O)n(CCCCCN3CCN(c4cccc(C(F)(F)F)c4)CC3)c(=O)c3csc1c32` [Example 44, 4-[5-[4-(3-Trifluoromethylphenyl)piperazin-1-yl]-pentyl]-3,4,5,7,8,9-hexahydro-9-methoxyiminothieno[4,3,2-de]pyrido[1,2-c]pyrimidine-3,5-dione], for which the pIC50 at 5HT2 receptor is 6.89; on 5HT1A receptor, 6.70.

`O=C1CCn2c(=O)n(CCCCCN3CCC(=C(c4ccc(F)cc4)c4ccc(F)cc4)CC3)c(=O)c3csc1c32` [Example 45, 4-[5-[4-[Bis(4-fluorophenyl)methylene]piperadin-1-yl]pentyl]-3,4,5,7,8,9-hexahydrothieno[4,3,2-de]pyrimidine-3,5,9-trione Monooxalate]: the pIC50 was 7.26 at 5HT2 receptor and 6.62 at 5HT1A receptor.
